Measurements from US6525188B2, “Nuclear retinoic acid co-receptor” (Karo Bio Ab, priority 1994, dated 2003).

System: RXR / OR-1 on a DR4-containing promoter
Assay: PAP reporter gene under DR4-containing promoter, transfected embryonal carcinoma P19 EC cells
Settings: 100 nM 9-cis retinoic acid, 36 h, PAP activity
Procedure: Embryonal carcinoma P19 EC cells were cultured in Dulbecco's modified Eagle's medium supplemented with 10% foetal calf serum, nonessential amino acids, penicillin (100 units/ml) and streptomycin (100 mg/ml). […] Cells were plated in duplicate in 35 mm Petri dishes and transfected at 30% confluency, using lipofectin reagent (Bethesada Research Laboratories, USA) according to the recommendations of the supplier.
Transfections were repeated 6 times with different plasmid preparations and data from a representative experiment is presented here.
Since OR-1 and RXR formed a specific complex on the DR4 sequence in vitro, coexpression of OR-1 in embryonal carcinoma (EC) cells that express endogenous RXR was tested to determine whether it could affect the activity of a reporter gene under the control of a DR4-containing promoter.

CC1=C(/C=C/C(C)=C\C=C\C(C)=C\C(=O)O)C(C)(C)CCC1 [9-cis retinoic acid]
activation of RXR on a DR4-containing promoter (EC cells with endogenous RXR, OR-1 expressed): activation | induction of RXR on a reporter containing DR4 (embryonal carcinoma (EC) cells with endogenous RXR, without OR-1 expression): no induction
